Data: the supplement of paper PMC8671470

Experiments:
Details in all cases: 72 h
[1] = test system: KU-812; assay: cell viability (% survival relative to DMSO control, bortezomib = 0%); higher = less cytotoxic
In short: (§1)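 Fifteen myeloid leukaemia cell lines were exposed to compounds at 1, 10, 100, 1000 or 10000 nM in 384-well plates for 72 h at 37 °C and 5% CO2. Viability was read by CellTiter-Glo luminescence and normalised, with vehicle as 100% and a 10 µM positive control as 0%. Values are percent survival averaged over duplicates.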

[2] = test system: KG-1; assay: as above
In short: as §1

[3] = test system: NOMO-1; assay: as above
In short: as §1

[4] = test system: MOLM-13; assay: as above
In short: as §1

[5] = test system: Mono-Mac-6; assay: as above
In short: as §1

[6] = test system: HL-60; assay: as above
In short: as §1

[7] = test system: HEL; assay: as above
In short: as §1

[8] = test system: THP-1; assay: as above
In short: as §1

[9] = test system: MV4-11; assay: as above
In short: as §1

[10] = test system: LAMA-84; assay: as above
In short: as §1

[11] = test system: SHI-1; assay: as above
In short: as §1

[12] = test system: ML-2; assay: as above
In short: as §1

[13] = test system: K-562; assay: as above
In short: as §1

[14] = test system: KCL-22; assay: as above
In short: as §1

[15] = test system: BV-173; assay: as above
In short: as §1

[16] = test system: KU-812
In short: (§2)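 Fifteen myeloid leukaemia lines were incubated for 72 h at 37 °C with 5% CO2 across five tenfold doses from 1 to 10,000 nM, in duplicate. ATP luminescence was normalised to vehicle and to a positive control at 10 µM and fitted with a four-parameter log-logistic model. The IC50 came from these dose–response fits.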

[17] = test system: KG-1
In short: as §2

[18] = test system: NOMO-1
In short: as §2

[19] = test system: MOLM-13
In short: as §2

[20] = test system: Mono-Mac-6
In short: as §2

[21] = test system: HL-60
In short: as §2

[22] = test system: HEL
In short: as §2

[23] = test system: THP-1
In short: as §2

[24] = test system: MV4-11
In short: as §2

[25] = test system: LAMA-84
In short: as §2

[26] = test system: SHI-1
In short: as §2

[27] = test system: ML-2
In short: as §2

[28] = test system: K-562
In short: as §2

[29] = test system: KCL-22
In short: as §2

[30] = test system: BV-173
In short: as §2

Cc1cccc(Nc2cc(Cl)nc(SCC(=O)O)n2)c1C [Pirinixic acid]
cell viability [%]
Details | 1 nM | 10 nM | 100 nM | 1000 nM | 10000 nM
[1] | 97.2 | 97.6 | 102 | 96.4 | 97.3
[2] | 99 | 93.1 | 101 | 98.8 | 107
[3] | 106 | 102 | 102 | 90.5 | 96.8
[4] | 106 | 102 | 87.1 | 111 | 84.6
[5] | 105 | 106 | 98.4 | 99.2 | 91.4
[6] | 97.2 | 101 | 116 | 93.8 | 98.2
[7] | 84 | 100 | 109 | 104 | 101
[8] | 105 | 97.1 | 101 | 99.5 | 102
[9] | 94.5 | 90.7 | 102 | 99.3 | 99.8
[10] | 100 | 97.7 | 99 | 94.5 | 95
[11] | 98.5 | 97 | 91.8 | 94.4 | 82.8
[12] | 103 | 103 | 105 | 105 | 102
[13] | 99.8 | 92.3 | 102 | 94.5 | 90.7
[14] | 86.5 | 92.5 | 100 | 106 | 101
[15] | 106 | 90.6 | 104 | 92.1 | 93.5

Details | IC50 (cell viability) [µM]
[16] | > 10
[17] | > 10
[18] | > 10
[19] | > 10
[20] | > 10
[21] | > 10
[22] | > 10
[23] | > 10
[24] | > 10
[25] | > 10
[26] | > 10
[27] | > 10
[28] | > 10
[29] | > 10
[30] | > 10

C[C@]12C=CC(=O)C=C1CC[C@@H]1[C@@H]2[C@@H](O)C[C@@]2(C)[C@H]1CC[C@]2(O)C(=O)CO [Prednisolone]
cell viability [%]
Details | 1 nM | 10 nM | 100 nM | 1000 nM | 10000 nM
[1] | 87.2 | 104 | 99.8 | 124 | 112
[2] | 115 | 105 | 87.7 | 91.3 | 71.4
[3] | 93.3 | 103 | 109 | 88.7 | 87.3
[4] | 94.3 | 96 | 118 | 106 | 109
[5] | 93.7 | 90.3 | 151 | 157 | 140
[6] | 93.2 | 93.5 | 104 | 114 | 116
[7] | 105 | 114 | 109 | 109 | 105
[8] | 92 | 96.4 | 106 | 108 | 102
[9] | 95.2 | 110 | 143 | 142 | 107
[10] | 94.1 | 106 | 92.6 | 88.5 | 81.5
[11] | 97.7 | 95.7 | 97.9 | 67.6 | 71.9
[12] | 91.5 | 104 | 115 | 114 | 104
[13] | 112 | 88.7 | 104 | 99 | 92.6
[14] | 94.2 | 111 | 82.5 | 45.4 | 43
[15] | 82.5 | 104 | 18.8 | 1.67 | 2.49

Details | IC50 (cell viability) [µM]
[16] | > 10
[17] | > 10
[18] | > 10
[19] | > 10
[20] | > 10
[21] | > 10
[22] | > 10
[23] | > 10
[24] | > 10
[25] | > 10
[26] | > 10
[27] | > 10
[28] | > 10
[29] | 0.524
[30] | 0.0525

C=CCN(C)CCCCCCOc1ccc(C(=O)c2ccc(Br)cc2)c(F)c1.O=C(O)/C=C/C(=O)O [Ro 48-8071 fumarate]
cell viability [%]
Details | 1 nM | 10 nM | 100 nM | 1000 nM | 10000 nM
[1] | 90.2 | 92.4 | 76.2 | 80.7 | 43.3
[2] | 110 | 101 | 78.5 | 80.7 | 52.3
[3] | 104 | 97 | 98.1 | 105 | 92.7
[4] | 132 | 113 | 88.9 | 89.1 | 62.2
[5] | 92.2 | 87.6 | 92.4 | 96 | 63.8
[6] | 115 | 88.4 | 84.3 | 98.8 | 24.7
[7] | 112 | 102 | 102 | 109 | 86.7
[8] | 102 | 91.7 | 105 | 101 | 80.3
[9] | 91.5 | 114 | 84.4 | 83.4 | 50.6
[10] | 90.6 | 100 | 81.1 | 83.8 | 47
[11] | 103 | 100 | 101 | 105 | 58.5
[12] | 106 | 98.5 | 106 | 96.4 | 68.9
[13] | 87 | 104 | 102 | 82.2 | 19.6
[14] | 99.6 | 98.6 | 96.3 | 87.4 | 77.5
[15] | 90.3 | 86.2 | 66.2 | 63.3 | 29.5

Details | IC50 (cell viability) [µM]
[16] | 9.97
[17] | 6.11
[18] | > 10
[19] | > 10
[20] | > 10
[21] | 5.92
[22] | > 10
[23] | > 10
[24] | 5.95
[25] | 8.49
[26] | > 10
[27] | > 10
[28] | 2.06
[29] | > 10
[30] | 1.79

CN(CCOc1ccc(Cc2sc(O)nc2O)cc1)c1ccccn1 [Rosiglitazone]
cell viability [%]
Details | 1 nM | 10 nM | 100 nM | 1000 nM | 10000 nM
[1] | 98.9 | 111 | 92.5 | 95.4 | 90.3
[2] | 91.4 | 110 | 94.3 | 101 | 91.2
[3] | 109 | 107 | 97.8 | 105 | 102
[4] | 107 | 115 | 118 | 130 | 122
[5] | 95.9 | 92.6 | 54.5 | 25.2 | 24.8
[6] | 97.8 | 111 | 107 | 127 | 168
[7] | 110 | 110 | 113 | 110 | 91.9
[8] | 101 | 101 | 88.6 | 90.6 | 93.5
[9] | 107 | 105 | 105 | 95 | 93.5
[10] | 99.3 | 106 | 100 | 95.6 | 97.4
[11] | 102 | 123 | 111 | 116 | 103
[12] | 106 | 108 | 95.6 | 120 | 115
[13] | 96.6 | 109 | 98.5 | 98.7 | 85.4
[14] | 96.4 | 113 | 110 | 94.2 | 102
[15] | 96.7 | 101 | 81 | 97.7 | 101

Details | IC50 (cell viability) [µM]
[16] | > 10
[17] | > 10
[18] | > 10
[19] | > 10
[20] | 0.0852
[21] | > 10
[22] | > 10
[23] | > 10
[24] | > 10
[25] | > 10
[26] | > 10
[27] | > 10
[28] | > 10
[29] | > 10
[30] | > 10

CC(C)(C)c1ccc(S(=O)(=O)NCc2ccc(C(=O)Nc3cccnc3)cc2)cc1 [STF-31]
cell viability [%]
Details | 1 nM | 10 nM | 100 nM | 1000 nM | 10000 nM
[1] | 91.8 | 107 | 58.6 | 14.2 | 7.98
[2] | 147 | 137 | 72.6 | 19.7 | 18.4
[3] | 102 | 95.7 | 40.1 | 6.08 | 0.284
[4] | 111 | 154 | 96.6 | 109 | 0.127
[5] | 107 | 114 | 105 | 36.9 | 31
[6] | 102 | 169 | 65.7 | -0.0172 | 0.631
[7] | 107 | 119 | 35.3 | 3.71 | 2.64
[8] | 101 | 95.9 | 101 | 103 | 110
[9] | 98 | 139 | 3.11 | 0.253 | 0.177
[10] | 97.5 | 94.6 | 68.8 | 6.82 | 2.61
[11] | 89.7 | 118 | 108 | 101 | 57.4
[12] | 95.8 | 101 | 83.5 | 3.23 | 0.455
[13] | 109 | 103 | 82.2 | 11.9 | 3.63
[14] | 85 | 80 | 98.4 | 9.33 | 1.6
[15] | 96.3 | 111 | 3.51 | 0.776 | 0.807

Details | IC50 (cell viability) [µM]
[16] | 0.109
[17] | 0.144
[18] | 0.074
[19] | 3.57
[20] | 0.548
[21] | 0.143
[22] | 0.0738
[23] | > 10
[24] | 0.0451
[25] | 0.169
[26] | > 10
[27] | 0.228
[28] | 0.242
[29] | 0.437
[30] | 0.0383
